Columns and labels:
[1] = system: corn rust (Puccinia sorghi); test: Greenhouse pot test, corn rust; type: in vivo; conditions: Puccinia sorghi, 168 h, read-out: Control effect (%) Corn rust
Method: (§1) Test method: each of the test compounds in Table 1 was dispensed to 5 wt % emulsifiable concentrate (hereinafter referred to as 5% EC). The greenhouse pot test was used in each experiment, and the effective concentrations of each compound were illustrated in Table 1.
Corn rust: two-three leaf stage potted corn seedling with uniform growth was selected and made foliar spray treatment with 5% EC, the blank control sprayed with clean water was additionally arranged, three replicates were carried out. After 24 h, the leaves of the host plants were inoculated with sporangial suspensions of the fungi corn rust (Puccinia sorghi), the plants were stored in humidity chamber (temperature: lighting 25° C., dark 20° C., relative humidity 95-100%) and then transferred to greenhouse (25±1° C.) 24 h after infection. After 7 days, the screening results were investigated according to the disease incidence condition of blank control.
(§2) The investigation method: “Guidelines for the field efficacy trials of pesticides” was adopted as the grading standard, and the control effect in a unit of % was calculated based on the disease index. Disease index=Σ(number of diseased leaves at each grade×relative grade value)×100/(total number of leaves×9); Control effect (%)=(disease index of control−disease index of treated)×100/disease index of control;
(§3) The compounds provided by the present disclosure and some control compounds were tested by the same methods in the Test example 1, except that the effective concentrations of the compounds in this Test example are shown in Table 2.

[2] = system: wheat powdery mildew (Erysiphe graminis); test: Greenhouse pot test, wheat powdery mildew; type: in vivo; conditions: Blumeria graminis, 168 h, read-out: Control effect (%) Wheat powdery mildew
Source text: as §1
Wheat powdery mildew: two-leaf stage potted wheat seedling with uniform growth was selected and made foliar spray treatment with 5% EC, the blank control sprayed with clean water was additionally arranged, three replicates were carried out. After 24 h, the leaves of the host plants were inoculated by shake-down method with sporangial suspensions of the fungi wheat powdery mildew (Erysiphe graminis), the plants were stored in a greenhouse (25±1° C.). After 7 days, the screening results were investigated according to the disease incidence condition of blank control.
as §2, §3

cucumber powdery mildew = test: Greenhouse pot test, cucumber powdery mildew; type: in vivo; conditions: Cucumis sativus, 192 h, greenhouse pot, read-out: Control effect (%) Cucumber powdery mildew
Method: as §1
Cucumber powdery mildew: cucumber seedling in a true leaf period with uniform growth was selected, and dried in the shade for 24 h after spray treatment. Fresh cucumber powdery mildew spores on the cucumber leaves were collected and washed, and filtered through a double gauze to prepare a spores suspension with concentration of about 100,000/mL, then spray inoculation was applied. The test materials inoculated were moved into a greenhouse (lighting 21-23° C.), after 8 days, the grading investigation was carried out according to the disease incidence condition of blank control, and the control effect in a unit of % was calculated according to disease index.
as §2, §3

[3] = system: rice sheath blight fungi (Rhizoctonia solami); test: Greenhouse pot test, rice sheath blight; type: in vivo
Method: as §3
In addition, the test method for rice sheath blight as following steps:
The potted rice seedling with uniform growth was selected, and dried in the shade for 24 h after spray treatment, then inoculated 3 blocks of 0.25 cm^2 rice sheath blight fungi (Rhizoctonia solami) at the base of seedling by clamp inoculation bacterium block method. The test materials inoculated were moved into greenhouse (temperature: lighting 28° C., dark 25° C., relative humidity 95%), after 7 days, investigate 5 leaves of per block treatment, the grading investigation was carried out according to the disease incidence condition of sheaths and leaves of rice, “Guidelines for the field efficacy trials of pesticides” was adopted as the grading standard, the disease index was calculated according to the grading standard, and the control effect in a unit of % was calculated according to disease index.

wheat powdery mildew = test: Field trial, wheat powdery mildew; type: in vivo, Erysiphe graminis; conditions: sprayed once
Method: II. The Wheat Powdery Mildew Test Method:
(§4) Spray method: Stein and leaf spraying (Applicator: Xinkangda lithium battery electric sprayer).
Test crops: wheat (cultivars: Liaochun 10)
(§5) The test was carried out in Shenyang, the test field was loam with rich organic matters and normal management of fertilizer and water, and no other pesticide was applied during the test.
(§6) The arrangement of the test plot was random block permutation; the area of the test plot: 15 m^2; repeat times: 3 times; spray time and frequency: Sep. 17, 2018, once. Spray dosage: each treatment was repeated 3 times, the total water consumption was 8 L. No other pesticide was applied during the test.
The incidence of disease spots in each plot was investigated by diagonal selecting 4 samples/plot and 20 plants/samples, and the first leaf below the flag leaf of each plant was investigated.
(§7) The grading standard of crop disease was as follows:
(§8) Grade 0: no leaf-spot area;
(§9) Grade 1: the ratio of leaf-spot area to leaf area is less than 5%;
(§10) Grade 3: the ratio of leaf-spot area to leaf area is between 6-25%;
(§11) Grade 5: the ratio of leaf-spot area to leaf area is between 26-50%;
(§12) Grade 7: the ratio of leaf-spot area to leaf area is between 51-75%;
(§13) Grade 9: the ratio of leaf-spot area to leaf area is between 76-100%;
(§14) According to the relevant content of the “Guidelines for the field efficacy trials of pesticides of the People's Republic of China (PRC)”, the disease index was calculated according to the grading standard, and the control effect in a unit of % was calculated based on the disease index, and the test data of significance analysis was performed by using DPS evaluation system (DMRT).

soybean rust = test: Field trial, soybean rust; type: in vivo, Phakopsora pacchyrhizi Sydow; conditions: sprayed 2 times
Method: III. The Soybean Rust Test Method:
as §4
Test crops: soybean (cultivars: Glycine max(L) Merr)
as §5
as §6, with “25” for “15”, “2 times on Aug. 11, 2018 and Aug. 21, 2018 respectively.” for “Sep. 17, 2018, once.”, “test. […] 15-20 days after the second spray treatment, the control effect was investigated.” for “test.”
The incidence of disease spots in each plot was investigated by diagonal selecting 5 samples/plot and 20 plants/samples, 10 leaves/plant was surveyed.
as §7, §8, §9, §10, §11, §12, §13, §14

SMILES: Cn1cc(C(=O)Nc2ccccc2Oc2ccc(C(F)(F)F)cc2C(F)(F)F)c(C(F)F)n1 [Compound 1]
- pest or weed control at 1.5625 µg/mL ([1]; 1.5625 mg/L): 100%
- pest or weed control at 2.5 µg/mL ([1]; 2.5 mg/L): 100%
- pest or weed control at 3.125 µg/mL ([1]; 3.1250 mg/L): 100%
- pest or weed control at 6.25 µg/mL ([1]; 6.25 mg/L): 100%
- pest or weed control at 10 µg/mL ([1]; 10 mg/L): 100%
- pest or weed control at 25 µg/mL ([1]; 25 mg/L): 100%
- pest or weed control at 100 µg/mL ([1]; 100 mg/L): 100%
- pest or weed control at 1.5625 µg/mL ([2]; 1.5625 mg/L): 85%
- pest or weed control at 2.5 µg/mL ([2]; 2.5 mg/L): 100%
- pest or weed control at 3.125 µg/mL ([2]; 3.1250 mg/L): 100%
- pest or weed control at 6.25 µg/mL ([2]; 6.25 mg/L): 100%
- pest or weed control at 10 µg/mL ([2]; 10 mg/L): 100%
- pest or weed control at 25 µg/mL ([2]; 25 mg/L): 100%
- pest or weed control at 100 µg/mL ([2]; 100 mg/L): 100%
- pest or weed control at 1 µg/mL (cucumber powdery mildew; 1 mg/L): 90%
- pest or weed control at 1.5625 µg/mL (cucumber powdery mildew; 1.5625 mg/L): 95%
- pest or weed control at 2.5 µg/mL (cucumber powdery mildew; 2.5 mg/L): 98%
- pest or weed control at 3.125 µg/mL (cucumber powdery mildew; 3.1250 mg/L): 100%
- pest or weed control at 6.25 µg/mL (cucumber powdery mildew; 6.25 mg/L): 100%
- pest or weed control at 10 µg/mL (cucumber powdery mildew; 10 mg/L): 100%
- pest or weed control at 25 µg/mL (cucumber powdery mildew; 25 mg/L): 100%
- pest or weed control at 100 µg/mL (cucumber powdery mildew; 100 mg/L): 100%
- Control effect (%) Rice sheath blight ([3]; 0.625 mg/L): 75%
- Control effect (%) Rice sheath blight ([3]; 1 mg/L): 80%
- Control effect (%) Rice sheath blight ([3]; 1.5625 mg/L): 85%
- Control effect (%) Rice sheath blight ([3]; 2.5 mg/L): 90%
- Control effect (%) Rice sheath blight ([3]; 3.1250 mg/L): 100%
- Control effect (%) Rice sheath blight ([3]; 10 mg/L): 100%
- Control effect (%) Wheat powdery mildew (wheat powdery mildew; 100 mg/L): 98%
- Control effect (%) Wheat powdery mildew (wheat powdery mildew; 200 mg/L): 100%
- Control effect (%) (soybean rust; dosage 50 mg/L): 92.67%
- Control effect (%) (soybean rust; dosage 75 mg/L): 94.56%
- Control effect (%) (soybean rust; dosage 100 mg/L): 97.69%
